According to patent US20240182445A1 (ONO PHARMACEUTICAL CO., LTD., priority 2019, published 2024):

molecular target: T1, human TREK-1 (Homo sapiens, UniProt O95069); assay: TREK-1 Thallium (Tl+) flux assay, Method 1; type: cell-based; conditions: TREK-1 Thallium (Tl+) flux assay, Method 1
T1 construct: expressed in transfected cells
T1 sequence (O95069 1-426): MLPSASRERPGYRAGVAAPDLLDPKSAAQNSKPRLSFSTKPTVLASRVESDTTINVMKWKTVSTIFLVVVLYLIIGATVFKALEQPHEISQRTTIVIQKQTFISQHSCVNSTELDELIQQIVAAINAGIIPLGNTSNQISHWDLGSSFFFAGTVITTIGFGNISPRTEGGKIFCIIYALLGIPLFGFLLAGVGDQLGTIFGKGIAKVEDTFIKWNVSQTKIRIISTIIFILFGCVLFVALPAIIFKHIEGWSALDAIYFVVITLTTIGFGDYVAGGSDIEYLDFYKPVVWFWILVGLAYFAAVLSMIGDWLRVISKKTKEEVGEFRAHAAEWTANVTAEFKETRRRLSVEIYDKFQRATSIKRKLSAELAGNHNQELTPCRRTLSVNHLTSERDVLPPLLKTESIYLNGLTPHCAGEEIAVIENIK
Method in brief: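 CHO-K1 cells stably expressing human TREK-1, loaded with Thallos dye, received compound or 0.3% DMSO vehicle for 10 min before thallium stimulus buffer. ΔRatio is fluorescence at 25 s after thallium addition over mean pre-addition fluorescence; % inhibition calculated from it.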

Compound `CC(=O)N1CC2(CC(n3ncc(Cl)c3C(=O)Nc3ccc(OCc4ccccc4)cc3C)C2)C1` [Compound 433, 1-(2-acetyl-2-azaspiro[3.3]heptan-6-yl)-N-(4-(benzyloxy)-2-methylphenyl)-4-chloro-1H-pyrazole-5-carboxamide] has an IC50 of 6890 nM.

same assay, conditions: TREK-1 Thallium (Tl+) flux assay; no *^12 (Method 2) mark on these rows

In order of rising IC50:
1. Cc1cc(C#Cc2ccccc2)cnc1NC(=O)c1c(Cl)cnn1[C@H]1C[C@@H](NC(=O)C(C)C)C1 [Compound 207, 4-chloro-1-(cis-3-isobutyramidocyclobutyl)-N-(3-methyl-5-(phenylethynyl)pyridin-2-yl)-1H-pyrazole-5-carboxamide]  310 nM
2. Cc1cc(C#Cc2ccc(F)cc2)cnc1NC(=O)c1c(Cl)cnn1C1CCN(C(=O)C2COCCO2)C1 (stereo not shown) [Compound 230, 1-(1-(1,4-dioxane-2-carbonyl)pyrrolidin-3-yl)-4-chloro-N-(5-((4-fluorophenyl)ethynyl)-3-methylpyridin-2-yl)-1H-pyrazole-5-carboxamide]  350 nM
3. Cc1cc(C#Cc2ccc(F)cc2)cnc1NC(=O)c1c(Cl)cnn1C1CCN(C(=O)C2CC2)C1 (stereo not shown) [Compound 229, 4-chloro-1-(1-(cyclopropanecarbonyl)pyrrolidin-3-yl)-N-(5-((4-fluorophenyl)ethynyl)-3-methylpyridin-2-yl)-1H-pyrazole-5-carboxamide]  350 nM
4. CC(=O)N1CCC(n2ncc(Cl)c2C(=O)Nc2ncc(C#Cc3ccccc3)cc2C)C1 (stereo not shown) [Compound 238, 1-(1-acetylpyrrolidin-3-yl)-4-chloro-N-(3-methyl-5-(phenylethynyl)pyridin-2-yl)-1H-pyrazole-5-carboxamide]  370 nM
5. Cc1cc(C#Cc2ccccc2)cnc1NC(=O)c1c(Cl)cnn1CC1(C#N)CCCC1 [Compound 242, 4-chloro-1-((1-cyanocyclopentyl)methyl)-N-(3-methyl-5-(phenylethynyl)pyridin-2-yl)-1H-pyrazole-5-carboxamide]  380 nM
6. Cc1cc(C#Cc2ccccc2)cnc1NC(=O)c1c(Cl)cnn1C[C@H]1C[C@@H]2CC[C@H]1O2 (racemic) [Compound 259, 4-chloro-N-[3-methyl-5-(phenylethynyl)pyridin-2-yl]-1-{[(1S,2S,4R)-7-oxabicyclo[2.2.1]heptan-2-yl]methyl}-1H-pyrazole-5-carboxamide and 4-chloro-N-[3-methyl-5-(phenylethynyl)pyridin-2-yl]-1-{[(1R,2R,4S)-7-oxabicyclo[2.2.1]heptan-2-yl]methyl}-1H-pyrazole-5-carboxamide]  430 nM
7. CC(=O)N1CCC(Cn2ncc(Cl)c2C(=O)Nc2ncc(C#Cc3ccc(F)cc3)cc2C)C(F)(F)C1 (stereo not shown) [Compound 313, 1-((1-acetyl-3,3-difluoropiperidin-4-yl)methyl)-4-chloro-N-(5-((4-fluorophenyl)ethynyl)-3-methylpyridin-2-yl)-1H-pyrazole-5-carboxamide]  590 nM
8. Cc1cc(C#Cc2ccc(F)cc2)cnc1NC(=O)c1c(Cl)cnn1C1CC2(CCN(C(=O)C(C)C)C2)C1 (stereo not shown) [Compound 332, 4-chloro-N-{5-[(4-fluorophenyl)ethynyl]-3-methylpyridin-2-yl}-1-[6-(2-methylpropanoyl)-6-azaspiro[3.4]octan-2-yl]-1H-pyrazole-5-carboxamide]  660 nM

same assay, conditions: TREK-1 Thallium (Tl+) flux assay; values without footnote *12 are Method 1

In order of rising IC50:
1. CC(=O)N1CCC(n2ncc(Cl)c2C(=O)Nc2ncc(C#Cc3ccccc3)cc2C)C(F)C1 (stereo not shown) [Compound 29, 1-(1-acetyl-3-fluoropiperidin-4-yl)-4-chloro-N-(3-methyl-5-(phenylethynyl)pyridin-2-yl)-1H-pyrazole-5-carboxamide]  100 nM
2. CC(=O)N1CCC(n2ncc(Cl)c2C(=O)Nc2c(F)cc(C#Cc3ccccc3)cc2F)CC1 [Compound 33, 1-(1-acetylpiperidin-4-yl)-4-chloro-N-(2,6-difluoro-4-(phenylethynyl)phenyl)-1H-pyrazole-5-carboxamide]  110 nM
3. O=C(Nc1ncc(C#Cc2ccccc2)cc1F)c1c(Cl)cnn1C1CCN(C(=O)C(F)(F)F)CC1 [Compound 54, 4-chloro-N-(3-fluoro-5-(phenylethynyl)pyridin-2-yl)-1-(1-(2,2,2-trifluoroacetyl)piperidin-4-yl)-1H-pyrazole-5-carboxamide]  140 nM
4. CC(=O)N1CCC(Cn2ncc(Cl)c2C(=O)Nc2ncc(C#Cc3ccccc3)cc2C)CC1 [Compound 85, 1-((1-acetylpiperidin-4-yl)methyl)-4-chloro-N-(3-methyl-5-(phenylethynyl)pyridin-2-yl)-1H-pyrazole-5-carboxamide]  170 nM
5. CC(C)(C)C(=O)N1CCC(n2ncc(Cl)c2C(=O)Nc2ncc(C#Cc3ccccc3)cc2F)CC1 [Compound 100, 4-chloro-N-(3-fluoro-5-(phenylethynyl)pyridin-2-yl)-1-(1-pivaloylpiperidin-4-yl)-1H-pyrazole-5-carboxamide]  190 nM
6. Cc1cc(C#Cc2ccccc2)cnc1NC(=O)c1c(Cl)cnn1C[C@H]1CCN(C(=O)C(C)C)C[C@H]1F [Compound 108, 4-chloro-1-(((3S,4R)-3-fluoro-1-isobutyrylpiperidin-4-yl)methyl)-N-(3-methyl-5-(phenylethynyl)pyridin-2-yl)-1H-pyrazole-5-carboxamide]  190 nM
7. CC(=O)NC1CCCC(n2ncc(Cl)c2C(=O)Nc2ncc(C#Cc3ccccc3)cc2C)C1 (stereo not shown) [Compound 107, 1-(3-acetamidocyclohexyl)-4-chloro-N-(3-methyl-5-(phenylethynyl)pyridin-2-yl)-1H-pyrazole-5-carboxamide hydrofluoride]  190 nM
8. CC(=O)N1CC(n2ncc(Cl)c2C(=O)Nc2ncc(C#Cc3ccccc3)cc2C)C1 [Compound 122, 1-(1-acetylazetidin-3-yl)-4-chloro-N-(3-methyl-5-(phenylethynyl)pyridin-2-yl)-1H-pyrazole-5-carboxamide]  210 nM
9. CC(=O)N1CC[C@H](n2ncc(Cl)c2C(=O)Nc2ncc(C#Cc3ccccc3)cc2C)C1 [Compound 128, (S)-1-(1-acetylpyrrolidin-3-yl)-4-chloro-N-(3-methyl-5-(phenylethynyl)pyridin-2-yl)-1H-pyrazole-5-carboxamide]  220 nM
10. CC(=O)N1CC[C@H](n2ncc(Cl)c2C(=O)Nc2ncc(C#Cc3ccccc3)cc2F)[C@@H](F)C1 [Compound 154, 1-((3S,4S)-1-acetyl-3-fluoropiperidin-4-yl)-4-chloro-N-(3-fluoro-5-(phenylethynyl)pyridin-2-yl)-1H-pyrazole-5-carboxamide]  240 nM
11. Cc1cc(C#Cc2ccccc2)cnc1NC(=O)c1c(Cl)cnn1[C@H]1CC[C@H](NC(=O)C(C)C)CC1 [Compound 191, 4-chloro-1-(trans-4-isobutyramidocyclohexyl)-N-(3-methyl-5-(phenylethynyl)pyridin-2-yl)-1H-pyrazole-5-carboxamide]  290 nM
12. Cc1cc(C#Cc2ccccc2)cnc1NC(=O)c1c(Cl)cnn1CC1CCN(C(=O)OC(C)(C)C)CC1 [Compound 186, tert-butyl 4-((4-chloro-5-((3-methyl-5-(phenylethynyl)pyridin-2-yl)carbamoyl)-1H-pyrazol-1-yl)methyl)piperidine-1-carboxylate]  290 nM
13. Cc1cc(C#Cc2ccccc2)cc(F)c1NC(=O)c1c(Cl)cnn1CCCC#N [Compound 185, 4-chloro-1-(3-cyanopropyl)-N-(2-fluoro-6-methyl-4-(phenylethynyl)phenyl)-1H-pyrazole-5-carboxamide]  290 nM
